Test results taken from US20090018194A1, “Use of antimicrobial agents derived from alliaceous plants for the prevention and control of crop diseases, post-harvest rot and as environmental disinifectant products” (DMC Research Center, S.L., priority 2007, published 2009).

Experiments:
[1] = test system: Listeria monocytogenes CECT 4032; test: agar diffusion test with impregnated cellulose discs; format: cell-based; conditions: incl. 6 mm disc
[2] = test system: Escherichia coli CECT 515; test: as above; format: cell-based; conditions: incl. 6 mm disc
[3] = test system: Candida krusei ATCC 34135; test: as above; format: cell-based; conditions: incl. 6 mm disc
[4] = test system: Saccharomyces cerevisiae CECT 1324; test: as above; format: cell-based; conditions: incl. 6 mm disc
[5] = test system: Aspergillus terreus CECT 2663; test: as above; format: cell-based; conditions: incl. 6 mm disc
[6] = test system: Penicillium sp. (CPC-PT-2); test: agar diffusion test, wild fungi isolated from crown rot in bananas; format: cell-based; conditions: incl. 6 mm disc
[7] = test system: Penicillium sp. (CPC-PT-4); test: as above; format: cell-based; conditions: incl. 6 mm disc
[8] = test system: Phytophthora citrophthora CECT 2353; test: agar diffusion test, wild phytopathogens isolated from citrus rot; format: cell-based; conditions: incl. 6 mm disc
Botrytis cinerea [9] = test: post-harvest rotting of inoculated pears, drencher treatment; format: in vivo; conditions: 15 days of refrigeration at 5-6° C.
Method: (§1) The effectiveness of the active principle PTS (in various individual doses) was studied in the control of post-harvest rotting of pears and apples caused by the fungi Botrytis cinerea and Penicillium expansum, the principal agents of diseases in these fruits. These phytopathogens can appear in fruit being stored in a cold room and, once in the processing plant and in a later phase, form colonies and are transferred from one fruit to another by contact. The study was performed by means of a controlled inoculation test to ensure a high percentage of affected fruits, and to guarantee that this level of infection is with certainty caused by these pathogens, thereby making it possible to detect and evaluate significant differences between the different treatments. […] To perform the controlled inoculation, wild strains of Botrytris cinerea and Penicillium expansum were used which were isolated in fruit and vegetable processing plants. […] After the time indicated above had passed, the various post-harvest treatments were carried out by means of […] 25° C. for 60 seconds.

Penicillium expansum [10] = test: as above; format: in vivo; conditions: 15 days of refrigeration at 5-6° C.
Method: as §1

Botrytis cinerea [11] = test: post-harvest rotting of inoculated apples, drencher treatment; format: in vivo; conditions: 15 days of refrigeration at 5-6° C.
Method: as §1

Penicillium expansum [12] = test: as above; format: in vivo; conditions: 15 days of refrigeration at 5-6° C.
Method: as §1

With `CCCS[S+]([O-])CCC` (centres unmarked) [PTS, Propyl Propyl Thiosulfinate] the “diameter of the microbial inhibition halo” value ([1]; 25 ppm) was 18 mm, the “diameter of the microbial inhibition halo” value ([1]; 50 ppm) was 24 mm and the “diameter of the microbial inhibition halo” value ([1]; 100 ppm) was 30 mm. The “diameter of the microbial inhibition halo” value ([2]; 25 ppm) was 14 mm, the “diameter of the microbial inhibition halo” value ([2]; 50 ppm) was 17 mm and the “diameter of the microbial inhibition halo” value ([2]; 100 ppm) was 21 mm. The “diameter of the microbial inhibition halo” value ([3]; 25 ppm) was 14 mm, the “diameter of the microbial inhibition halo” value ([3]; 50 ppm) was 18 mm and the “diameter of the microbial inhibition halo” value ([3]; 100 ppm) was 29 mm. For the same molecule, the “diameter of the microbial inhibition halo” value ([4]; 25 ppm) was 28 mm, the “diameter of the microbial inhibition halo” value ([4]; 50 ppm) was 32 mm and the “diameter of the microbial inhibition halo” value ([4]; 100 ppm) was 44 mm. The “diameter of the microbial inhibition halo” value ([5]; 25 ppm) was 12 mm, the “diameter of the microbial inhibition halo” value ([5]; 50 ppm) was 22 mm and the “diameter of the microbial inhibition halo” value ([5]; 100 ppm) was 25 mm. For the same molecule, the “diameter of the microbial inhibition halo” value ([6]; 30 ppm) was 0 mm, the “diameter of the microbial inhibition halo” value ([6]; 60 ppm) was 0 mm and the “diameter of the microbial inhibition halo” value ([6]; 125 ppm) was 0 mm. The “diameter of the microbial inhibition halo” value ([6]; 250 ppm) was 15 mm, the “diameter of the microbial inhibition halo” value ([6]; 500 ppm) was 25 mm and the “diameter of the microbial inhibition halo” value ([6]; 1000 ppm) was 25 mm. For the same molecule, the “diameter of the microbial inhibition halo” value ([7]; 30 ppm) was 0 mm, the “diameter of the microbial inhibition halo” value ([7]; 60 ppm) was 11 mm and the “diameter of the microbial inhibition halo” value ([7]; 125 ppm) was 13 mm. The “diameter of the microbial inhibition halo” value ([7]; 250 ppm) was 20 mm, the “diameter of the microbial inhibition halo” value ([7]; 500 ppm) was 23 mm and the “diameter of the microbial inhibition halo” value ([7]; 1000 ppm) was 25 mm. For the same molecule, the “diameter of the microbial inhibition halo” value ([8]; 30 ppm) was 10 mm, the “diameter of the microbial inhibition halo” value ([8]; 60 ppm) was 21 mm and the “diameter of the microbial inhibition halo” value ([8]; 125 ppm) was 23 mm. For the same molecule, the “diameter of the microbial inhibition halo” value ([8]; 250 ppm) was 42 mm, the “diameter of the microbial inhibition halo” value ([8]; 500 ppm) was 53 mm and the “diameter of the microbial inhibition halo” value ([8]; 1000 ppm) was 55 mm. For the same molecule, the “% of fruit affected” value (Botrytis cinerea [9]; Decana, 500 ppm) was 0%, the “% of fruit affected” value (Botrytis cinerea [9]; Decana, 666 ppm) was 0% and the “% of fruit affected” value (Botrytis cinerea [9]; Decana, 833 ppm) was 1%. For the same molecule, the “% of fruit affected” value (Botrytis cinerea [9]; Decana, 1666 ppm) was 0.5%, the “% of fruit affected” value (Botrytis cinerea [9]; Flor de invierno, 500 ppm) was 3.5% and the “% of fruit affected” value (Botrytis cinerea [9]; Flor de invierno, 666 ppm) was 0.4%. For the same molecule, the “% of fruit affected” value (Botrytis cinerea [9]; Flor de invierno, 833 ppm) was 3.7%, the “% of fruit affected” value (Botrytis cinerea [9]; Flor de invierno, 1666 ppm) was 3% and the “% of fruit affected” value (Penicillium expansum [10]; Decana, 500 ppm) was 0%. For the same molecule, the “% of fruit affected” value (Penicillium expansum [10]; Decana, 666 ppm) was 2%, the “% of fruit affected” value (Penicillium expansum [10]; Decana, 833 ppm) was 0% and the “% of fruit affected” value (Penicillium expansum [10]; Decana, 1666 ppm) was 3%. For the same molecule, the “% of fruit affected” value (Penicillium expansum [10]; Flor de invierno, 500 ppm) was 3.6%, the “% of fruit affected” value (Penicillium expansum [10]; Flor de invierno, 666 ppm) was 2.2% and the “% of fruit affected” value (Penicillium expansum [10]; Flor de invierno, 833 ppm) was 2.4%. For the same molecule, the “% of fruit affected” value (Penicillium expansum [10]; Flor de invierno, 1666 ppm) was 5.3%, the “% of fruit affected” value (Botrytis cinerea [11]; Golden Delicious, 500 ppm) was 0.5% and the “% of fruit affected” value (Botrytis cinerea [11]; Golden Delicious, 666 ppm) was 0%. For the same molecule, the “% of fruit affected” value (Botrytis cinerea [11]; Golden Delicious, 833 ppm) was 1%, the “% of fruit affected” value (Botrytis cinerea [11]; Golden Delicious, 1666 ppm) was 0% and the “% of fruit affected” value (Botrytis cinerea [11]; Red Chief, 500 ppm) was 1%. For the same molecule, the “% of fruit affected” value (Botrytis cinerea [11]; Red Chief, 666 ppm) was 0%, the “% of fruit affected” value (Botrytis cinerea [11]; Red Chief, 833 ppm) was 1.5% and the “% of fruit affected” value (Botrytis cinerea [11]; Red Chief, 1666 ppm) was 0%. For the same molecule, the “% of fruit affected” value (Penicillium expansum [12]; Golden Delicious, 500 ppm) was 1.4%, the “% of fruit affected” value (Penicillium expansum [12]; Golden Delicious, 666 ppm) was 0.5% and the “% of fruit affected” value (Penicillium expansum [12]; Golden Delicious, 833 ppm) was 2.5%. The “% of fruit affected” value (Penicillium expansum [12]; Golden Delicious, 1666 ppm) was 0.7%, the “% of fruit affected” value (Penicillium expansum [12]; Red Chief, 500 ppm) was 2.8% and the “% of fruit affected” value (Penicillium expansum [12]; Red Chief, 666 ppm) was 0%. The “% of fruit affected” value (Penicillium expansum [12]; Red Chief, 833 ppm) was 3.2% and the “% of fruit affected” value (Penicillium expansum [12]; Red Chief, 1666 ppm) was 2.4%.
